Test [1] has as its system hMSC-TERT. Put plainly: In vitro osteoblast differentiation in OIM (ALP activity, alizarin red, qRT-PCR). The format is cell-based, human. The settings on record: co-treatment with H-8, hMSC. The protocol:
F) H-8 enhances ALP activity of hMSC, in the absence of serum.
Adding H-8 (25 μM) to the osteogenic induction media, during 9-days in vitro hMSC osteogenic differentiation, enhanced expression of osteoblastic markers as shown by qRT-PCR analysis. **P≦0.05, ***P≦0.005 (significant difference as compared to vehicle).
H-8 was added (25 μM) to the OIM at different time points during 12-days period.
In order to confirm the results obtained from the initial screen, the present inventors incubated hMSC-TERT and primary human bone marrow derived MSC (hBMSC) in osteogenic induction medium (OIM) supplemented with H-8 (dose range 1-30 μM) or vehicle. […] To determine the stage of differentiation at which the effect of H-8 was most apparent, the present inventors added H-8 (25 μM) to the OIM at different time points during 12-days period.
(In qPCR the cycle at which signal appears reflects the starting amount.)

In another test the test system is TGFβ signaling in hMSC. Description: TGFβ signaling, qRT-PCR and western blot. In kind it is cell-based, human. The settings on record: co-treatment with H-8. An excerpt:
(C): Western blot analysis of p-Smad and p-Akt reveled that the enahcing effect of H-8 on osteoblast differentiation of hMSC is mediated through activation of non-canonical TGFβ signaling. (D): SB431542, a selective inhibitor of TGWU activity abolished the enhanced phosphorylation of Akt and smad2 after H-8 treatment.
To investigate the mechanisms of the enhancing effects of H-8 on osteoblast differentiation of hMSC, the present inventors performed a DNA microarray analysis of hMSC-TERT under osteogenic culture conditions, in the presence or absence of the H-8 (25 μM). […] In order to identify the pathway that is primarily regulated by H-8 treatment, phosphorylation of canonical and non-canonical TGFβ signaling components was evaluated 5 minutes and 15 minutes after H-8 treatment. The inventors also evaluated the effect of TGFβ3 treatment on H-8 induced phosphorylation of Smad2 and Akt. […] This observation further confirms that the enhancing effect of H-8 on osteoblast differentiation of hMSC is mediated through regulation of TGFβ signaling.

In test [2] the test system is hMSC-TERT.
[3] abbreviates: 1 μM inhibitor in osteogenic inducing media, 6 days after induction, hMSC-TERT.
The mark [4] stands for this setting: 10 μM inhibitor in osteogenic inducing media, 6 days after induction, hMSC-TERT.

Where “and” joins values, the source holds several entries; their conditions need not be identical. Equal values may be shown once. Read-outs that look alike come from different tables or passages of the source.

On to `NC(=O)c1ccc(-c2nc(-c3ccccn3)c(-c3ccc4c(c3)OCO4)[nH]2)cc1` [SB431542], for which the “effect on H-8 enhanced osteoblast differentiation (ALP activity, matrix mineralization)” value with hMSC-TERT [1] was “blunted the enhancing effect of H-8 on osteoblast differentiation of hMSC”. Further, in the test on TGFβ signaling in hMSC, the “effect on H-8 induced Smad2 and Akt phosphorylation” value was “abolished the enhancing effect of H-8 on Smad2 and Akt phosphorylation”.

In the case of `CCCCCCCCCCCCC/C=C/[C@@H](O)[C@@H](N)CO` [Sphingosine], the “Relative ALP activity” value in the test with hMSC-TERT [2] (setting [3]) is 1.195; in the test on hMSC-TERT [2] (setting [4]) it was “Toxic”.

`CN[C@@H]1C[C@H]2O[C@@](C)([C@@H]1OC)n1c3ccccc3c3c4c(c5c6ccccc6n2c5c31)C(=O)NC4` [Staurosporine]: the “Relative ALP activity” value with hMSC-TERT [2] (setting [3]) is recorded as “TOXIC”; with hMSC-TERT [2] (setting [4]) it was “Toxic”.

With `CC1=C(O)C(=O)[C@@H]2O[C@@H]2C1=O` [Terreic acid], the figures for the “Relative ALP activity” value with hMSC-TERT [2] (setting [3]) and with hMSC-TERT [2] (setting [4]) were 0.2721 and 0.338, respectively.

Turning to `CC(C)(C)c1cc(C=C(C#N)C#N)cc(C(C)(C)C)c1O` [Tyrphostin9], the “Relative ALP activity” value in the test on hMSC-TERT [2] (setting [3]) is 0.3388; in the test on hMSC-TERT [2] (setting [4]) it was “Toxic”.

`N#CC(C#N)=Cc1ccc(O)c(O)c1` [Tyrphostin 23]: the results for the “Relative ALP activity” value in the test on hMSC-TERT [2] (setting [3]) and with hMSC-TERT [2] (setting [4]) were 0.9904 and 0.7067, respectively.

With `N#CC(C#N)=Cc1cc(O)c(O)c(O)c1` [Tyrphostin 25], the “Relative ALP activity” value came to 0.9397 in the test with hMSC-TERT [2] (setting [3]) and 0.8233 in the test on hMSC-TERT [2] (setting [4]).

As for `N#C/C(=C\c1ccc(O)c(O)c1)C(N)=O` [Tyrphostin 46], the “Relative ALP activity” value in the test with hMSC-TERT [2] (setting [3]) was found to be 1.179; in the test with hMSC-TERT [2] (setting [4]), 0.9029.

In the case of `N#C/C(=C\c1ccc(O)c(O)c1)C(N)=S` [Tyrphostin 47], the “Relative ALP activity” value in the test with hMSC-TERT [2] (setting [3]) amounted to 0.901; with hMSC-TERT [2] (setting [4]) it was 1.005.

For the molecule `N#CC(C#N)=C(N)/C(C#N)=C/c1cc(O)c(O)c(O)c1` [Tyrphostin 51], the “Relative ALP activity” value in the test on hMSC-TERT [2] (setting [3]) was determined as 0.8997; in the test on hMSC-TERT [2] (setting [4]) it was 0.8566.

Turning to `N#CC(C#N)=Cc1cc(O)c(O)c([N+](=O)[O-])c1` [Tyrphostin AG 1288], the “Relative ALP activity” value with hMSC-TERT [2] (setting [3]) is 0.8684; in the test with hMSC-TERT [2] (setting [4]), 0.802.

Turning to `Cc1cc2ncc(-c3ccccc3)nc2cc1C` [Tyrphostin AG 1295], the “Relative ALP activity” value stood at 1.007 with hMSC-TERT [2] (setting [3]) and 0.3556 with hMSC-TERT [2] (setting [4]).

In the case of `COc1cc2ncnc(Nc3cccc(Cl)c3)c2cc1OC` [Tyrphostin AG 1478], the “Relative ALP activity” value was 1.097 with hMSC-TERT [2] (setting [3]) and “Toxic” in the test on hMSC-TERT [2] (setting [4]).

For the molecule `N#CC(=C(/N)Sc1ccccc1N)/C(C#N)=C(\N)Sc1ccccc1N` [U-0126], in the test on hMSC-TERT [2], the “Relative ALP activity” value is 0.3485 and 0.281.

Take `COC[C@H]1OC(=O)c2coc3c2[C@@]1(C)C1=C(C3=O)[C@@H]2CCC(=O)[C@@]2(C)C[C@H]1OC(C)=O` [Wortmannin]: the “Relative ALP activity” value in the test on hMSC-TERT [2] (setting [3]) is given as 0.8301; with hMSC-TERT [2] (setting [4]), 0.9122.

Regarding `C[C@@H](N)[C@H]1CC[C@H](C(=O)Nc2ccncc2)CC1` [Y-27632], the “Relative ALP activity” value in the test with hMSC-TERT [2] (setting [3]) came out at 0.9848; in the test on hMSC-TERT [2] (setting [4]) it was 0.4092.

In the case of `Cc1ccc(NC(=O)c2cccc(N(C)C)c2)cc1NC(=O)c1ccc(O)cc1` [ZM 336372], the figures for the “Relative ALP activity” value in the test with hMSC-TERT [2] (setting [3]) and in the test with hMSC-TERT [2] (setting [4]) were 0.869 and 0.5373, respectively.

For `C=CC(=O)c1ccc2ccccc2c1` [ZM 449829], the “Relative ALP activity” value in the test with hMSC-TERT [2] (setting [3]) is given as 0.9444; with hMSC-TERT [2] (setting [4]), 0.8946.

Regarding `Cn1cnc2nc(NCCO)nc(NCc3ccccc3)c21` [iso-Olomoucine], the “Relative ALP activity” value is recorded as 1.084 in the test on hMSC-TERT [2] (setting [3]) and 0.9318 in the test with hMSC-TERT [2] (setting [4]).

In the case of BML-265, the figures for the “Relative ALP activity” value with hMSC-TERT [2] (setting [3]) and in the test on hMSC-TERT [2] (setting [4]) were 0.3954 and “Toxic”, respectively.

In the case of Indirubin-3′-monoxime, the “Relative ALP activity” value with hMSC-TERT [2] (setting [3]) is reported as 0.2589; in the test with hMSC-TERT [2] (setting [4]), 0.3697.

B1: TGFβ3: Transforming growth factor β3, added to hMSC together with H-8 (protein, UniProt P10600 301-412, looked up)
Transforming growth factor …: ALDTNYCFRNLEENCCVRPLYIDFRQDLGWKWVHEPKGYYANFCSGPCPYLRSADTTHSTVLGLYNTLNPEASASPCCVPQDLEPLTILYYVGRTPKVEQLSNMVVKSCKCS
For B1, the “effect on H-8 induced Smad2 and Akt phosphorylation” value in the test with TGFβ signaling in hMSC was “enhancing effect on H-8 induced Akt and Smad2 phosphorylation”.

For the origin of these results see patent US9273006B2, “Anabolic compounds for treating and preventing bone loss diseases” (SYDDANSK UNIVERSITET, priority 2012, dated 2016).
